Here are results for 5 compounds from US20200087248A1, “Fluoroallylamine Derivative And Use Thereof” (SICHUAN KELUN-BIOTECH BIOPHARMACEUTICAL CO., LTD., priority 2017, published 2020).

Data set [1] addresses T1, VAP-1 in abdominal fat of mice (Mus musculus, UniProt O70423).
T1 construct: abdominal fat was collected and homogenized; from tissue; host or cells: abdominal fat of BALBc mice (homogenate supernatant)
T1 sequence (O70423 1-765): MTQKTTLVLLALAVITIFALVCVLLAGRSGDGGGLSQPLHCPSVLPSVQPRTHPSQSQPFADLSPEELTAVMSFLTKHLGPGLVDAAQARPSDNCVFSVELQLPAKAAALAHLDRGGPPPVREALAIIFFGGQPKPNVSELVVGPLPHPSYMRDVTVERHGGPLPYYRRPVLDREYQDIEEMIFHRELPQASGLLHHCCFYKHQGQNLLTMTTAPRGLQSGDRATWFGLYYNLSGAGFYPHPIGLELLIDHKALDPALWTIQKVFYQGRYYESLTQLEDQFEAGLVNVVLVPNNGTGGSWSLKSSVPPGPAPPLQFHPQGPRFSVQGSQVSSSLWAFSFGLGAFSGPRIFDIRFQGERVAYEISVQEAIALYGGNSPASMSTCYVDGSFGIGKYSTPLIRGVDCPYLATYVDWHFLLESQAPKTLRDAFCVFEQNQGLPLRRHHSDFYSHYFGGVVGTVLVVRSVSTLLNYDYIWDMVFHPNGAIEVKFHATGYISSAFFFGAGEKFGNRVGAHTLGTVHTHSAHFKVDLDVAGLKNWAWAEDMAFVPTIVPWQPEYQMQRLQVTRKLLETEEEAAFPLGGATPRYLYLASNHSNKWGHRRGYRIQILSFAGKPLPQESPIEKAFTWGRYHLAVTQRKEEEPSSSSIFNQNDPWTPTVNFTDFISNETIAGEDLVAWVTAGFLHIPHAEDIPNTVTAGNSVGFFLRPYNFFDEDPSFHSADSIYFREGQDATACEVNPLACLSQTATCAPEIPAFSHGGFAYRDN
The data set can be described thus: Inhibition of the enzymatic activity of VAP-1 ex-vivo, abdominal fat after oral dosing. The class given is in vivo, BALBc mice. Particulars: 0.5 mg/kg oral, abdominal fat collected after six hours; for inhibition at 0.5 mg/kg: mouse, read-out: Inhibition rate (%) against the enzymatic activity of VAP-1 (ex-vivo). The method, then:
Inhibition Experiment Against the Enzymatic Activity (ex-vivo)
Tissue homogenate buffer solution (20 mM HEPES, pH 7.2, 1 mM EDTA, 250 mM sucrose, PMSF 0.2 mM)
Reaction buffer solution: 50 mM PBS, pH 7.4
Test kit: Amplex® Red Monoamine Oxidase Assay, Manufacturer: ThermoFisher
BALBc mice were administrated orally with different doses of the test compound, and the vehicle group was used as the control group. After six hours, abdominal fat was collected and homogenized at 1:20 (w/v) with the pre-cooled homogenate buffer solution, and thereafter, the homogenate was centrifuged at 10,000 g and 4° C. or 10 minutes, the supernatant was collected and stored at -80° C. for further use.
A test sample was diluted with the reaction buffer solution and successively added with the inhibition solution A: 1 μM Clorgyline+1 μM pargylin, to inhibit the activities of MAO-A and MAO-B, and the inhibition solution B: 1 μM Clorgyline+1 μM Pargylin+1 μM Mofegiline as the blank control, and after being incubated at room temperature for 20 min, 500 μM benzylamine hydrochloride, 1 U/mL HRP and 200 μM Amplex Red reagent were added to start the reaction. By referring to the method in “Experiment of inhibiting the enzymatic activity of VAP-1”, relative activity of each dose group was calculated, wherein the ratio of the fluorescent signal to reaction time in the linear range is the reaction rate, and the vehicle group is the positive control, thereby to study the inhibition of the compound against the enzymatic activity of VAP-1 in abdominal fat of mice.

A further data set concerns the target T2, CYP3A4 (Homo sapiens, UniProt P08684).
T2 construct: purchased Promega
Nature of the data set: Inhibition of cytochrome P450 isoenzyme CYP3A4 (P450-Glo). The note with it: estimated from inhibition rates at 10 μM and 1 μM; for IC50: read-out: IC50, inhibition against CYP3A4. The class given is in vitro ADME. The method, then:
(§1) Inhibition Experiment Against Cytochrome P450 Isoenzyme (CYP)
P450-Glo™ CYP3A4 Screening System, manufacturer: Promega
(§2) According to the specification of the test kit, 10 nM CYP1A2, 5 nMCYP2D6, and 1 nM CYP3A4 proteins and corresponding substrates (100 μM, 30 μM, 3 μM) as well as the compound were pre-incubating respectively for 10 min, G6PDH-G6P-NADP regeneration system was added to start the reaction, a test reagent was added later, after 20 min, the chemical luminescent signals were detectted.
(§3) Percent inhibition rate (%)=(1-(signal of each compound concentration group-signal of the blank group)/(signal of the negative control-signal of the blank group))*100.
(§4) According to the inhibition rates of the compound at different concentrations against P450 enzyme, the half inhibition concentration (IC5o) or range was estimated.
(§5) IC50=X*(1-percent inhibition rate (%))/percent inhibition rate (%), wherein, X is the test concentration of the compound.
(§6) According to the above method, the inhibition of the compound at the concentrations 10 μM, and 1 μM, against three CYPs were measured, and the results were shown in the following Tables 10-12: […]

For another data set, the target named is T3, CYP1A2 (Homo sapiens, UniProt P05177).
T3 construct: purchased Promega
T3 sequence (P05177 1-516): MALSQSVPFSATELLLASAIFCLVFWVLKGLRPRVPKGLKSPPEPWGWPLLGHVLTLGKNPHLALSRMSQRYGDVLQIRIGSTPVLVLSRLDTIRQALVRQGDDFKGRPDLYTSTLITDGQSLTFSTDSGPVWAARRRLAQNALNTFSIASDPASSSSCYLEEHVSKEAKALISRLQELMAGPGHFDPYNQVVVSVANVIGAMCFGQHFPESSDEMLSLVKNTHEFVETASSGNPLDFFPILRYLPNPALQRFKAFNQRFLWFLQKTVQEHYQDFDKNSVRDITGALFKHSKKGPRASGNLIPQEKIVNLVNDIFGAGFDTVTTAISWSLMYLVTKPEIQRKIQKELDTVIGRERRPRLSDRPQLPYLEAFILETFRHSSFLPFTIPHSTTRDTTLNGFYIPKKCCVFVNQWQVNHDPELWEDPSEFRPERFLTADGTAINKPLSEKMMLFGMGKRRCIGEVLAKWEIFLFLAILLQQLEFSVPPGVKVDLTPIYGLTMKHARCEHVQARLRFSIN
Nature of the data set: Inhibition of cytochrome P450 isoenzyme CYP1A2 (P450-Glo). The class given is in vitro ADME. Particulars: estimated from inhibition rates at 10 μM and 1 μM. The method, then: as §1
P450-Glo™ CYP1A2 Screening System, manufacturer: Promega
as §2, §3, §4, §5, §6

The target of a further data set is T4, CYP2D6 (Homo sapiens, UniProt P10635).
T4 construct: purchased Promega
T4 sequence (P10635 whole entry): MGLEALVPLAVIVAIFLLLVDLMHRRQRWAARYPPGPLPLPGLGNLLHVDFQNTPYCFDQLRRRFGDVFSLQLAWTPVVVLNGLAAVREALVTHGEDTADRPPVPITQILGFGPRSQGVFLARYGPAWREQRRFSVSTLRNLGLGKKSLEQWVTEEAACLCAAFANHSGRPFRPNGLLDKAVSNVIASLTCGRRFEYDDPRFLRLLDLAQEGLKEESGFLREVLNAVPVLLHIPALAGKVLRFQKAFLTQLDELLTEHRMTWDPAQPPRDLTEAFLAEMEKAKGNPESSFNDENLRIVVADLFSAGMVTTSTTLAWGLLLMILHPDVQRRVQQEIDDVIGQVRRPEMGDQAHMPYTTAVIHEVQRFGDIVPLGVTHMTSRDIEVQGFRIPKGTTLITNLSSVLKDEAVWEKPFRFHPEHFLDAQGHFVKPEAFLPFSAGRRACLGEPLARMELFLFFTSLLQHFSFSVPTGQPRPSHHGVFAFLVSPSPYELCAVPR
Nature of the data set: Inhibition of cytochrome P450 isoenzyme CYP2D6 (P450-Glo). The class given is in vitro ADME. Particulars: estimated from inhibition rates at 10 μM and 1 μM; for IC50: read-out: IC50, inhibition against CYP2D6. The method, then: as §1
P450-Glo™ CYP2D6 Screening System, manufacturer: Promega
as §2, §3, §4, §5, §6

Where a name gives a salt, the structure may show the parent alone.

T2 sequence (P08684 whole entry): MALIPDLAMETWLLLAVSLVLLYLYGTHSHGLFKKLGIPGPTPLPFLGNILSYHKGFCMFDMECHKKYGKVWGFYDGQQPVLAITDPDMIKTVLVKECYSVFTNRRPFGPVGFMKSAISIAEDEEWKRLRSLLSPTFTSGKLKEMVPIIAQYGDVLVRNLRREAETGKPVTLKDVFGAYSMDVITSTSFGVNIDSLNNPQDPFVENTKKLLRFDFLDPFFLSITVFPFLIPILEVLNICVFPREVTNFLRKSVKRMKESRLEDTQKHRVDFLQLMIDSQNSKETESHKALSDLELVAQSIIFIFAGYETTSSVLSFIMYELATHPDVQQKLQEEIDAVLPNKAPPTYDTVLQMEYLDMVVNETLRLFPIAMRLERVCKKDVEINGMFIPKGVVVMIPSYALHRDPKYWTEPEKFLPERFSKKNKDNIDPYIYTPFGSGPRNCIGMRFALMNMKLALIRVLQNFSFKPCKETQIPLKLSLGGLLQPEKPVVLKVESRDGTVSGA

As usually defined, the inhibition is the percentage by which the read-out fell short of the control. Turning to `NC/C(=C/F)COc1ccc2c(c1)CCNC2=O` [TM26-Z, (Z)-6-((2-aminomethyl-3-fluoroallyl)oxy)-3,4-dihydroisoquinolin-1(2H)-one trifluoroacetate], the inhibition at 0.5 mg/kg in data set [1] stood at 86.6 ± 5.5%.
The term IC50 denotes the concentration needed to halve the response being measured. On to “(E)-6-((2-(methylamino)-3-fluoroallyl)oxy)-3,3-dimethyl-3,4-dihydro-isoquinolin-1(2H)-one trifluoroacetate [TM38-E]”, for which, at CYP3A4, the “IC50, inhibition against CYP3A4” value is “do not have significant inhibitions” and the IC50 was over 10 µM. In addition, at CYP1A2, the “IC50, inhibition against CYP1A2” value is “do not have significant inhibitions”. In addition, the IC50 on CYP1A2 (read-out: IC50, inhibition against CYP1A2) was 6.73 ± 0.39 µM. The “Inhibition rate (%) against the enzymatic activity of VAP-1 (ex-vivo)” value in data set [1] turned out to be 92.7 ± 3.0%. Moreover, at CYP2D6, the “IC50, inhibition against CYP2D6” value is “do not have significant inhibitions” and the IC50 is over 10 µM.
For `NC/C(=C\F)COc1ccc(-c2ncccn2)cc1` [TM39-E, (E)-2-(4-(2-pyrimidyl)phenoxymethyl)-3-fluoroallylamine trifluoroacetate], the inhibition at 0.5 mg/kg in data set [1] worked out at 93 ± 2.7%.
On to “(E)-6-((2-(methylamino)-3-fluoroallyl)oxy)-2-methyl-3,4-dihydroisoquinolin-1(2H)-one trifluoroacetate [TM66-E]”, for which, on CYP3A4, the “IC50, inhibition against CYP3A4” value is listed as “do not have significant inhibitions” and the IC50 is over 10 µM. Besides, the “IC50, inhibition against CYP1A2” value on CYP1A2 is “do not have significant inhibitions”. In addition, the “Inhibition rate (%) against the enzymatic activity of VAP-1 (ex-vivo)” value in data set [1] came out at 92.3 ± 1.9%. Also, at CYP2D6, the “IC50, inhibition against CYP2D6” value is reported as “do not have significant inhibitions” and the IC50 was over 10 µM.
As for `NC/C(=C\F)COc1ccc(C(=O)Nc2ccccc2)cc1` [TM1-E, (E)-N-phenyl-4-((2-aminomethyl-3-fluoroallyl)oxy)-benzamide trifluoroacetate], the inhibition at 0.5 mg/kg in data set [1] was determined as 96.7 ± 2.2%.
